Patent US20130090360A1 (priority 2010, published 2013)
Read-outs that look alike come from different tables or passages of the source.

What was measured:
Pyricuaria oryzae = format: in vivo, Pyricuaria oryzae on rice plants (variety Tainong 67); details: field, natural infection
Pyricularia oryzae = format: in vivo, Pyricularia oryzae on rice plants (variety Tainong 67); details: field, natural infection

SMILES | Efficacy % 22 days after first application (Pyricuaria oryzae; application rate 25 g ai/ha) | Efficacy % 22 days after first application (Pyricuaria oryzae; application rate 50 g ai/ha) | Efficacy % 22 days after first application (Pyricuaria oryzae; application rate 75 g ai/ha) | Efficacy % 15 days after first application (Pyricularia oryzae; application rate 25 g ai/ha) | Efficacy % 15 days after first application (Pyricularia oryzae; application rate 50 g ai/ha) | Efficacy % 15 days after first application (Pyricularia oryzae; application rate 75 g ai/ha) | Efficacy % 22 days after first application (Pyricuaria oryzae; application rate 100 g ai/ha) | Efficacy % 22 days after first application (Pyricuaria oryzae; application rate 200 g ai/ha) | Efficacy % 15 days after first application (Pyricularia oryzae; application rate 100 g ai/ha)
Fc1ccc([C@]2(Cn3cncn3)O[C@H]2c2ccccc2Cl)cc1 (racemic) [Epoxiconazole (EPX), epoxiconazole] | 1.2% | 0.0% | 5.6% | 17.7% | 24.1% | 35.1% | – | – | –
Cc1cccc2sc3nncn3c12 [Tricyclazol, tricyclazole] | – | – | – | – | – | – | 5.6% | 0.0% | 34.9%
